Holding throughout (assay): relative viability (nuclei count vs DMSO), 5 days (fraction); higher = more cells survive
Compound in test [1]: Cc1ccc(-n2nc(C(C)(C)C)cc2NC(=O)Nc2ccc(OCCN3CCOCC3)c3ccccc23)cc1 [Doramapimod] + C[C@@H](Oc1cc(-c2cnn(C3CCNCC3)c2)cnc1N)c1c(Cl)ccc(F)c1Cl [Crizotinib] (partner 1 µM)
In short, it runs like this:
(§1)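 Values are medians from duplicate plates. Each reflects relative viability, defined as the nuclei count of treated wells over that of vehicle wells. Lung cancer cell lines in 1536-well plates were pin-tool dosed one day after seeding with one drug alone or with a fixed anchor-drug dose plus five library-drug doses (not always all listed) in √10 steps, then fixed, stained and imaged at 4× after 5 days.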

Compound in test [2]: C1=CC=C2C(=C1)C=CC(=C2SSC3=C(C=CC4=CC=CC=C43)O)O [IPA-3] + Cc1nc(NC(=O)N2CCC[C@H]2C(N)=O)sc1-c1ccnc(C(C)(C)C(F)(F)F)c1 [Alpelisib] (partner 2 µM)
In short, it runs like this:
as §1

Compound in test [3]: Cc1ccc(-n2nc(C(C)(C)C)cc2NC(=O)Nc2ccc(OCCN3CCOCC3)c3ccccc23)cc1 [Doramapimod] + Cc1nc(NC(=O)N2CCC[C@H]2C(N)=O)sc1-c1ccnc(C(C)(C)C(F)(F)F)c1 [Alpelisib] (partner 2 µM)
In short, it runs like this: as §1

Compound in test [4]: Cn1c(Nc2ccc(C(F)(F)F)cc2)nc2cc(Oc3ccnc(-c4ncc(C(F)(F)F)[nH]4)c3)ccc21 [RAF265] + Cc1nc(NC(=O)N2CCC[C@H]2C(N)=O)sc1-c1ccnc(C(C)(C)C(F)(F)F)c1 [Alpelisib] (partner 2 µM)
In short, it runs like this:
as §1

Results on four cell lines are retold here after the supplement of paper PMC10307832.

As for NCI-H2347, the relative viability in test [1] (first compound 0.02 µM) is 0.789; in test [1] (first compound 0.06325 µM) it was 0.568; in test [1] (first compound 0.2 µM) it was 0.745; in test [1] (first compound 0.6325 µM) it was 0.762; in test [1] (first compound 2 µM) it was 0.644; in test [2] (first compound 0.2 µM), 1.12. For the same cell line, the relative viability stood at 0.941 in test [2] (first compound 0.6325 µM); 0.928 in test [2] (first compound 2 µM); 1.08 in test [2] (first compound 6.325 µM); 1.01 in test [2] (first compound 20 µM); 1.09 in test [3] (first compound 0.02 µM); 0.926 in test [3] (first compound 0.06325 µM). The relative viability was determined as 1.06 in test [3] (first compound 0.2 µM); 1.05 in test [3] (first compound 0.6325 µM); 0.957 in test [3] (first compound 2 µM); 1.18 in test [4] (first compound 0.01 µM); 0.97 in test [4] (first compound 0.03162 µM); 0.933 in test [4] (first compound 0.1 µM). Also, the figures for the relative viability in test [4] (first compound 0.3162 µM) and in test [4] (first compound 1 µM) were 0.612 and 0.488, respectively.

NCI-H2405: the relative viability in test [1] (first compound 0.02 µM) worked out at 0.822; in test [1] (first compound 0.06325 µM) it was 0.826; in test [1] (first compound 0.2 µM), 0.877; in test [1] (first compound 0.6325 µM) it was 0.996; in test [1] (first compound 2 µM), 0.798; in test [2] (first compound 0.2 µM) it was 0.815. The relative viability worked out at 0.771 in test [2] (first compound 0.6325 µM); 0.753 in test [2] (first compound 2 µM); 0.853 in test [2] (first compound 6.325 µM); 0.829 in test [2] (first compound 20 µM); 0.82 in test [3] (first compound 0.02 µM); 0.718 in test [3] (first compound 0.06325 µM). The relative viability is 0.715 in test [3] (first compound 0.2 µM); 1.18 in test [3] (first compound 0.6325 µM); 0.678 in test [3] (first compound 2 µM); 0.808 in test [4] (first compound 0.01 µM); 0.858 in test [4] (first compound 0.03162 µM); 0.863 in test [4] (first compound 0.1 µM). The relative viability in test [4] (first compound 0.3162 µM) was 0.712; in test [4] (first compound 1 µM), 0.297.

NCI-H3122: the relative viability in test [1] (first compound 0.02 µM) is 0.268; in test [1] (first compound 0.06325 µM) it was 0.267; in test [1] (first compound 0.2 µM), 0.223; in test [1] (first compound 0.6325 µM), 0.256; in test [1] (first compound 2 µM) it was 0.266; in test [2] (first compound 0.2 µM), 0.797. In addition, the relative viability in test [2] (first compound 0.6325 µM) came to 0.798; in test [2] (first compound 2 µM), 0.804; in test [2] (first compound 6.325 µM), 0.856; in test [2] (first compound 20 µM), 0.776; in test [3] (first compound 0.02 µM) it was 0.952; in test [3] (first compound 0.06325 µM), 0.831. The relative viability came out at 0.756 in test [3] (first compound 0.2 µM); 0.776 in test [3] (first compound 0.6325 µM); 0.863 in test [3] (first compound 2 µM); 0.909 in test [4] (first compound 0.01 µM); 0.868 in test [4] (first compound 0.03162 µM); 0.783 in test [4] (first compound 0.1 µM). Moreover, the relative viability in test [4] (first compound 0.3162 µM) turned out to be 0.559; in test [4] (first compound 1 µM) it was 0.417.

For PC-3 [JPC-3], the relative viability came to 1 in test [1] (first compound 0.02 µM); 1 in test [1] (first compound 0.06325 µM); 1.06 in test [1] (first compound 0.2 µM); 1.08 in test [1] (first compound 0.6325 µM); 0.955 in test [1] (first compound 2 µM); 1.04 in test [2] (first compound 0.2 µM). Further, the relative viability in test [2] (first compound 0.6325 µM) amounted to 1.05; in test [2] (first compound 2 µM), 1.04; in test [2] (first compound 6.325 µM), 0.972; in test [2] (first compound 20 µM), 1.08; in test [3] (first compound 0.02 µM) it was 1.15; in test [3] (first compound 0.06325 µM) it was 1.01. Moreover, the relative viability was found to be 1.09 in test [3] (first compound 0.2 µM); 1.11 in test [3] (first compound 0.6325 µM); 0.978 in test [3] (first compound 2 µM); 1 in test [4] (first compound 0.01 µM); 0.993 in test [4] (first compound 0.03162 µM); 1.08 in test [4] (first compound 0.1 µM). In addition, the results for the relative viability in test [4] (first compound 0.3162 µM) and in test [4] (first compound 1 µM) were 0.331 and 0.644, respectively.
